The values below come from article PMC5840523, “Assessment of a pretomanid analogue library for African trypanosomiasis: Hit-to-lead studies on 6-substituted 2-nitro-6,7-dihydro-5H-imidazo[2,1-b][1,3]thiazine 8-oxides” (Bioorganic & Medicinal Chemistry Letters, 2018).

By IC50 is commonly meant the concentration at which inhibition is half-maximal. As a reminder, the solubility is the dissolved amount per volume that the medium holds. The amount remaining is what is left of the initial amount, in per cent. In general, Papp A→B refers to the apparent permeability from the apical to the basolateral side of a cell layer. Lower therefore signals poor permeation. By Papp B→A is commonly meant the apparent permeability from the basolateral to the apical side of a cell layer.

Data set [1] deals with T. b. brucei (TREU 667). The note with it: cited from earlier work.
The subject of data set [2] is T. b. brucei 427. As to the kind of experiment: T. b. brucei growth inhibition (University of Antwerp). The data set is classed as cell-based, Trypanosoma brucei brucei. The note with it: for IC50: T. b. brucei 427, mean of 2 to 5 determinations, read-out: IC50 T. b. bruc.
The subject of a further data set is Trypanosoma cruzi. The data set can be described thus: T. cruzi growth inhibition (University of Antwerp). The conditions noted are these: mean of 2 to 5 determinations. In kind it is cell-based.
Data set [3] has as its system T. b. brucei (TREU 667). As to the kind of experiment: CNS (stage 2, chronic) HAT infection mouse model. In kind it is in vivo, T. b. brucei; female Swiss Webster mice. On the procedure: Therefore, 24 was examined in a stage 1 HAT mouse model.[14] Briefly, dosing was orally once daily for four days, starting 24 h postinfection, and parasitemia was assessed weekly via tail vein blood smears (see the Supporting Information). Excellent activity was observed (Table 4), with 24 providing complete cures (i.e. parasite free blood smears after >30 days) to all mice at doses as low as 5 mg/kg, similar to the control drug pentamidine (given i.p. at 2 mg/kg), whereas the vehicle only mice died on day 7. […]
Mouse Model for Chronic HAT Inf ection. Compound 24 was tested for in vi vo efficac y against chronic HAT infection caused b y T. b. brucei (TREU 667 strain) at the Haskin s Laboratories, Pace Universit y. […]
suspension formulation (0.8% CMC, 0.1% SDS in water) to groups of 8 or 10infected f emal e Swiss Webster mice, starting 21 d postinfection, according to a report ed method. 5 Animals remaining parasite free for more than 180 da ys beyond the end of the treatment period were […]

A further data set deals with Leishmania infantum. As to the kind of experiment: L. infantum growth inhibition (University of Antwerp). In kind it is cell-based. The conditions noted are these: mean of 2 to 5 determinations.
The next data set deals with T. b. rhodesiense. The data set can be described thus: T. b. rhodesiense growth inhibition (University of Antwerp). The data set is classed as cell-based, Trypanosoma brucei rhodesiense. The conditions noted are these: for IC50: mean of 2 to 5 determinations, read-out: IC50 T. b. rhod.
The subject of data set [4] is T. b. brucei 427. The data set can be described thus: T. b. brucei 427 growth inhibition (Scynexis). In kind it is cell-based, Trypanosoma brucei brucei.
Data set [5] can be described thus: Kinetic solubility in water or 0.1 M HCl (ACSRC). The data set is classed as physicochemical. The conditions noted are these: read-out: aqueous solubility.
Another data set concerns L929 mouse fibroblasts. As to the kind of experiment: Cytotoxicity toward L929 mouse fibroblasts (Scynexis). The data set is classed as cell-based.
Data set [6] in a line: Mouse liver microsomal stability. The note with it: CD-1 mouse liver microsomes. In kind it is in vitro ADME. A general note: Liver microsomes are vesicles of endoplasmic reticulum, rich in cytochrome P450 enzymes.
Data set [7] can be described thus: Human liver microsomal stability. In kind it is in vitro ADME. The conditions noted are these: pooled human liver microsomes.
For data set [8], the system named is human lung fibroblasts (MRC-5 cells). As to the kind of experiment: Cytotoxicity toward MRC-5 cells (University of Antwerp). In kind it is cell-based.
The next data set deals with T. b. brucei (EATRO 110). The data set can be described thus: Acute (stage 1) HAT infection mouse model. In kind it is in vivo, T. b. brucei; female Swiss Webster mice. As to the method: Therefore, 24 was examined in a stage 1 HAT mouse model.[14] Briefly, dosing was orally once daily for four days, starting 24 h postinfection, and parasitemia was assessed weekly via tail vein blood smears (see the Supporting Information). Excellent activity was observed (Table 4), with 24 providing complete cures (i.e. parasite free blood smears after >30 days) to all mice at doses as low as 5 mg/kg, similar to the control drug pentamidine (given i.p. at 2 mg/kg), whereas the vehicle only mice died on day 7. […] Here, oral dosing of 24 (at 12.5 to 50 mg/kg once daily for seven days from day 21 postinfection) led to significant increases in survival times in comparison to untreated controls (66–70 days vs 31 days; Table 5), although cure rates were inadequate (0–20%). […]
Mouse Model f or Acu te HAT Inf ection. Compound 24 was tested for in vivo effi cac y against acute HAT infection caused b y T. b. brucei (EATRO 110 strain) at the Haskins Laboratories, Pace Universit y. […] Infected animals or th ose showing si gns of infectionwer e euthanized.Untreated infected contr ol animals died after 5-7 days; mice remaining parasite free for more than 30 da ys beyond the end of the tr eatment period w er e con sidered cur ed. […]

The next data set is described as follows: in vitro. The conditions noted are these: dog, MDCK-MDR1.
[9] abbreviates: 12.5 mg/kg orally once daily for 7 d from day 21 postinfection.
[10] abbreviates: 25 mg/kg orally once daily for 7 d from day 21 postinfection.
[11] abbreviates: 50 mg/kg orally once daily for 7 d from day 21 postinfection.
Setting [12] is: 1.25 mg/kg orally once daily for 4 days.
The mark [13] stands for this setting: 2.5 mg/kg orally once daily for 4 days.
Where [14] appears, read: 5 mg/kg orally once daily for 4 days.
Where [15] appears, read: 12.5 mg/kg orally once daily for 4 days.
The mark [16] stands for this setting: 25 mg/kg orally once daily for 4 days.
Where [17] appears, read: 50 mg/kg orally once daily for 4 days.

Values after ≈ are worked out from the molar mass of the structure shown. Like-named read-outs stand apart in the source and are kept apart here.

With `CC1(C)OB(O)c2cc(NC(=O)c3ccc(F)cc3C(F)(F)F)ccc21` [Compound 5], the cure rate in the data set on T. b. brucei (TREU 667) [1] (same CNS model, 25 mg/kg once daily for 7 days) is recorded as 100%.
With `O=[N+]([O-])c1cn2c(n1)[S@+]([O-])C[C@@H](OCc1ccc(OC(F)(F)F)cc1)C2` [Compound 24], the IC50 in the data set with T. b. brucei 427 [2] (Trypanosoma brucei) was 140 nM; in the data set with Trypanosoma cruzi (Trypanosoma cruzi) it was 1400 nM; with Leishmania infantum (Leishmania infantum), 10000 nM; with T. b. rhodesiense (Trypanosoma brucei, RHODESIENSE) it was 130 nM; with T. b. brucei 427 [4] (Trypanosoma brucei, growth inhibition of T. b. brucei 427, mean ± SD), 0.07 ± 0.005 µg/mL (≈ 0.179 µM); in the data set on L929 mouse fibroblasts, over 10 µg/mL. Also, in data set [8] (Homo sapiens, MRC5, cytotoxicity toward human lung fibroblasts), 50000 nM corresponded to half-maximal inhibition (IC50). Further, the Cured in the data set on T. b. brucei (TREU 667) [3] (setting [9]) was 0%; in the data set with T. b. brucei (TREU 667) [3] (setting [10]), 20%; in the data set with T. b. brucei (TREU 667) [3] (setting [11]), 0%; in the data set on T. b. brucei (EATRO 110) (setting [12]) it was 0%; in the data set on T. b. brucei (EATRO 110) (setting [13]) it was 25%; in the data set with T. b. brucei (EATRO 110) (setting [14]) it was 100%. The Cured in the data set on T. b. brucei (EATRO 110) (setting [15]), in the data set on T. b. brucei (EATRO 110) (setting [16]) and in the data set on T. b. brucei (EATRO 110) (setting [17]) was 100% each time. Besides, the Cured/Total is reported as 0/8 in the data set with T. b. brucei (TREU 667) [3] (setting [9]); 2/10 in the data set on T. b. brucei (TREU 667) [3] (setting [10]); 0/10 with T. b. brucei (TREU 667) [3] (setting [11]); 0/4 in the data set on T. b. brucei (EATRO 110) (setting [12]); 1/4 in the data set with T. b. brucei (EATRO 110) (setting [13]); 4/4 with T. b. brucei (EATRO 110) (setting [14]). The Cured/Total with T. b. brucei (EATRO 110) (setting [15]), in the data set with T. b. brucei (EATRO 110) (setting [16]) and in the data set on T. b. brucei (EATRO 110) (setting [17]) was 5/5 each time. In addition, the Mean relapse time was found to be 45 days in the data set on T. b. brucei (TREU 667) [3] (setting [9]), 70 days with T. b. brucei (TREU 667) [3] (setting [10]) and 66 days with T. b. brucei (TREU 667) [3] (setting [11]). For the same molecule, the cure rates in the data set with T. b. brucei (TREU 667) [3] (12.5 to 50 mg/kg orally once daily for seven days from day 21) was 0–20%. Further, the “Selectivity Index” value with T. b. brucei 427 [4] (L929 vs T. b. brucei) is recorded as over 143. Moreover, the “potency relative to (6R) enantiomer 26 (fold more potent)” value in the data set on T. b. brucei 427 [4] (T. b. brucei) is listed as “more than 70 fold”. The “potency relative to cis isomer 25 (fold more potent)” value in the data set with T. b. brucei 427 [4] (T. b. brucei) was 40 fold. Further, the solubility at 15 min in [5] (water) was found to be 106 µg/mL (≈ 271 µM). For the same molecule, the figures for the share remaining at 1 h in data set [6] and in data set [7] were 96% and 82%, respectively. Also, the Mean survival with T. b. brucei (EATRO 110) (setting [12]) is reported as 7.5 days; with T. b. brucei (EATRO 110) (setting [13]), 13 days; in the data set with T. b. brucei (EATRO 110) (setting [14]), over 30 days; in the data set with T. b. brucei (EATRO 110) (setting [15]) it was over 30 days; in the data set with T. b. brucei (EATRO 110) (setting [16]), over 30 days; with T. b. brucei (EATRO 110) (setting [17]) it was over 30 days. In the data set with T. b. brucei (EATRO 110) (orally once daily for four days), the “lowest dose providing complete cures to all mice” value was determined as 5 mg/kg. The “efficacy relative to results described for fexinidazole (4) (fold superior)” value in the data set on T. b. brucei (EATRO 110) (stage 1 HAT mouse model) was about 20 fold.
For the molecule `O=[N+]([O-])c1cn2c(n1)[S+]([O-])CC(OCc1ccc(-c3ccc(OC(F)(F)F)cc3)cn1)C2` (stereo not drawn) [Compound 35, 2-Nitro-6-({5-[4-(trifluoromethoxy)phenyl]pyridin-2-yl}methoxy)-6,7-dihydro-5H-imidazo[2,1-b][1,3]thiazine 8-oxide], the “potency against T. b. brucei relative to 12 (fold greater)” value with T. b. brucei 427 [2] was found to be 9 fold. The IC50 in the data set on T. b. brucei 427 [2] came to 30 nM; with Trypanosoma cruzi, 67 nM; in the data set with Leishmania infantum it was 410 nM; in the data set with T. b. rhodesiense it was 23 nM; in data set [8] (cytotoxicity toward human lung fibroblasts), 16000 nM. Besides, in “in vitro”, the Papp A→B at 150 min, 2 µM came to 11.7 ×10⁻⁶ cm/s. This molecule also returned a Papp B→A at 150 min, 2 µM in the data set “in vitro” of 18.2 ×10⁻⁶ cm/s. Further, in the data set with T. b. rhodesiense, the “potency against T. b. rhodesiense relative to 12 (fold higher)” value came to 11 fold. Moreover, the solubility at 15 min in [5] (0.1 M HCl, pH 1) came out at 1260 µg/mL (≈ 2690 µM); in data set [5] (water, pH 7), 9.9 µg/mL (≈ 21.1 µM). Besides, the fraction remaining at 1 h in data set [6] was 72%; in [7] it was 78%. The “selectivity index (MRC-5 IC50 / HAT IC50)” value in data set [8] was over 500 times. The “selectivity index relative to 12 (fold better)” value in [8] was 2.4 fold.
With `O=C(Nc1ccc2c(c1)B(O)OC2)c1ccc(F)cc1C(F)(F)F` [SCYX-6759], the “cure rate of the CNS infection” value in the data set with T. b. brucei (TREU 667) [1] (oral 50 mg/kg twice daily (b.i.d.)) is reported as 83%.
